Converted amounts (≈) assume the structure as drawn.
Key:
Type in all cases: cell-based
[1] = test system: Akt (Ser473) activation in washed human platelets; assay: Activation of Akt in human platelets; settings: TPO 100 ng/mL; for Akt activation (phosphorylation), agent alone: 15 minutes alone, Compound A (SB) 10 mM, phosphorylation-specific antibodies, Blot 1
Procedure: Washed human platelets from healthy volunteers were treated with vehicle (V) [0.33% DMSO], 100 ng/mL TPO [recombinant human thrombopoietin obtained from R&D Systems, Inc., Minneapolis, Minn., USA, or SB (SB=Compound A in Blot 1) (10 mM) for 15 minutes alone, or 13 minutes alone followed by 2 minutes with 1 mM ADP (+ADP). Protein extracts were probed for Akt (Ser473) activation. Results are representative of 3 individual experiments.
Compound A was compared to TPO in human platelets through the examination of a signal transduction pathway known to be activated through TPOR [TPO receptor] stimulation; specifically, Pi3K/Akt pathway activation [Chen, J., et al., Blood, 86, 4054-4062 (1995); Kojima, H., et al., Thrombosis & Haemostassis, 74, 1541-1545 (1995); Ezumi, Y., et al., FEBS Letters, 374, 48-52 (1995)].

[2] = test system: CCRF-CEM Lymphoblastic T cell leukemia cells; assay: Cancer Proliferation Assay (3H-thymidine uptake), CCRF-CEM; settings: Homo sapiens, 3 days, 3H-TdR uptake
Procedure: (§1) Flat-bottom 96-well microtiter tissue culture plates (Costar, Cambridge, Mass.) were used for the assay. Cultures were performed in replicates of 4 wells; each well contained 1×10^4 cells. Six concentrations of Compound A (ranging from 40 μg/mL to 100 ng/mL) were tested in the absence and presence of 10 ng/mL G-CSF, 100 ng/mL of TPO or 5 U/mL of EPO. Cells were also tested in medium alone, G-CSF alone, TPO alone, or EPO alone to establish 100% of control values. The final volume in each well was 200 μL. Plates were placed in a humidified 5% CO2 incubator at 37° C. for 3 days. Proliferation was measured by the uptake of tritiated thymidine (^3H-TdR) by pulsing wells with 1 μCi of ^3H-TdR for the final 18 hours of incubation, harvesting the plate on a Brandel 96-well cell harvester (Gaithersburg, Md.) and measuring radioactivity on the filter mats in a Wallac 1450 Microbeta TriLux scintillation counter (Turku, Finland). The effect of Compound A was determined by comparing the results of cells treated with test compound with control cells (100% of control).

[3] = test system: K562 Chronic Myelogenous leukemia cells; assay: Cancer Proliferation Assay (3H-thymidine uptake), K562; settings: Homo sapiens; K562, 3 days, 3H-TdR uptake
Procedure: as §1

[4] = test system: MOLT-4 Acute Lymphoblastic T cell leukemia cells; assay: Cancer Proliferation Assay (3H-thymidine uptake), MOLT-4; settings: Homo sapiens; MOLT-4, 3 days, 3H-TdR uptake
Procedure: as §1

[5] = test system: RPMI-8226 Plasmacytoma cells; assay: Cancer Proliferation Assay (3H-thymidine uptake), RPMI-8226; settings: Homo sapiens; RPMI-8226, 3 days, 3H-TdR uptake
Procedure: as §1

[6] = test system: SR Immunoblastic Large Cell Leukemia cells; assay: Cancer Proliferation Assay (3H-thymidine uptake), SR; settings: 3 days, 3H-TdR uptake
Procedure: as §1

HepG2 cells = assay: Liver Cancer Assay (CellTiter Glo); settings: Homo sapiens, HepG2, 72 hours, n=4 wells, read-out: IC50, decrease in the number of viable cells
Procedure: HepG2 is a human hepatocellular carcinoma cell line. Active cell determinations were performed on HepG2 cells by plating 2×10^4 cells/mL in 96-well plates in culture medium containing 10% FBS and incubating overnight in 5% CO2 at 37°. Cells were then treated with Compound A at 0, 0.1, 0.4, 1, 4, 10, 40 ug/mL and incubated for 72 hours. Cell proliferation was measured using the CellTiter Glo (Promega) reagent according to the manufacturer's protocol. Data is the mean of n=4 wells reported as the percent of the control (0 ug/mL of Compound A). Compound A induced a decrease in the number of viable cells with an IC50 of approximately 6 ug/mL.

NCI-H23 (NSCLC) = assay: Solid Tumor Cell Line Proliferation Assay, NCI-H23; settings: Homo sapiens; NCI-H23, 72 hr, Cell Titer Glo
Procedure: (§2) Cells in log phase growth were seeded in a 96-well plate at 2500 cells/well in 50 uL medium and incubated at 37° C., 5% CO2 overnight. Compound A was diluted in medium and added at 0.1, 0.4, 1, 4, 10 and 40 ug/mL. Following a 72 hr incubation at 37° C., 5% CO2. The CellTiter-Glo Luminescent Cell Viability Assay (ProMega Corp) was performed according to the manufacturer's instructions. Briefly following a 30 min room temperature incubation 100 uL CELLTiter Glo reagent was added to each well and mixed for 2 minutes. Luminescence was recorded following a 10 minute room temperature incubation using a PerkinElmer Microbeta luminescence counter. IC50 was determined by EXCel Fit 4.2.1.

HOP-92 (NSCLC) = assay: Solid Tumor Cell Line Proliferation Assay, HOP-92; settings: Homo sapiens; HOP-92, 72 hr, Cell Titer Glo
Procedure: as §2

EKVX (NSCLC) = assay: Solid Tumor Cell Line Proliferation Assay, EKVX; settings: Homo sapiens, 72 hr, Cell Titer Glo
Procedure: as §2

NCI-H226 (NSCLC) = assay: Solid Tumor Cell Line Proliferation Assay, NCI-H226; settings: Homo sapiens; NCI-H226, 72 hr, Cell Titer Glo
Procedure: as §2

HOP-62 (NSCLC) = assay: Solid Tumor Cell Line Proliferation Assay, HOP-62; settings: Homo sapiens; HOP-62, 72 hr, Cell Titer Glo
Procedure: as §2

A549 (NSCLC) = assay: Solid Tumor Cell Line Proliferation Assay, A549; settings: Homo sapiens; A549, 72 hr, Cell Titer Glo
Procedure: as §2

NCI-H322M (NSCLC) = assay: Solid Tumor Cell Line Proliferation Assay, NCI-H322M; settings: Homo sapiens, 72 hr, Cell Titer Glo
Procedure: as §2

NCI-H522 (NSCLC) = assay: Solid Tumor Cell Line Proliferation Assay, NCI-H522; settings: Homo sapiens; NCI-H522, 72 hr, Cell Titer Glo
Procedure: as §2

NCI-H460 (NSCLC) = assay: Solid Tumor Cell Line Proliferation Assay, NCI-H460; settings: Homo sapiens; NCI-H460, 72 hr, Cell Titer Glo
Procedure: as §2

[7] = test system: HepG2 (Hepatocellular carcinoma); assay: Solid Tumor Cell Line Proliferation Assay, HepG2; settings: Homo sapiens; HepG2, 72 hr, Cell Titer Glo
Procedure: Cells in log phase growth were seeded in a 96-well plate at 2500 cells/well in 50 uL medium and incubated at 37° C., 5% CO2 overnight. […] Following a 72 hr incubation at 37° C., 5% CO2. The CellTiter-Glo Luminescent Cell Viability Assay (ProMega Corp) was performed according to the manufacturer's instructions. Briefly following a 30 min room temperature incubation 100 uL CELLTiter Glo reagent was added to each well and mixed for 2 minutes. Luminescence was recorded following a 10 minute room temperature incubation using a PerkinElmer Microbeta luminescence counter. IC50 was determined by EXCel Fit 4.2.1.

IC50 [2] [µg/mL] | IC50 [3] [µg/mL] | IC50 [4] [µg/mL] | IC50 [5] [µg/mL] | IC50 [6] [µg/mL] | IC50 (HepG2 cells) [µg/mL] | IC50 (NCI-H23 (NSCLC)) [µg/mL] | IC50 (HOP-92 (NSCLC)) [µg/mL] | IC50 (EKVX (NSCLC)) [µg/mL] | IC50 (NCI-H226 (NSCLC)) [µg/mL] | IC50 (HOP-62 (NSCLC)) [µg/mL] | IC50 (A549 (NSCLC)) [µg/mL] | IC50 (NCI-H322M (NSCLC)) [µg/mL] | IC50 (NCI-H522 (NSCLC)) [µg/mL] | IC50 (NCI-H460 (NSCLC)) [µg/mL] | IC50 [7] [µg/mL] | Compound | Akt activation (phosphorylation), agent alone [1] | Akt activation in combination with ADP (preincubation with agent) ([1]; 13 minutes alone followed by 2 minutes with ADP, Compound A 10 mM)
 |  |  |  |  |  |  |  |  |  |  |  |  |  |  |  | Nc1ncnc2c1ncn2[C@@H]1O[C@H](COP(=O)(O)OP(=O)(O)O)[C@@H](O)[C@H]1O [ADP, reference compound] | no activation observed | 
0.74 (≈ 1.67 µM) | 1.8 (≈ 4.07 µM) | 0.56 (≈ 1.27 µM) | 5.9 (≈ 13.3 µM) | 0.77 (≈ 1.74 µM) | ~6 (≈ 13.6 µM) | 13.9 (≈ 31.4 µM) | 13.5 (≈ 30.5 µM) | 12.7 (≈ 28.7 µM) | 11 (≈ 24.9 µM) | 10.6 (≈ 24 µM) | 9.1 (≈ 20.6 µM) | 8.3 (≈ 18.8 µM) | 5.9 (≈ 13.3 µM) | 5.7 (≈ 12.9 µM) | 5.61 (≈ 12.7 µM) | CC1=NN(c2ccc(C)c(C)c2)C(=O)/C1=N\Nc1cccc(-c2cccc(C(=O)O)c2)c1O [Compound A, 3′-[(2Z)-[1-(3,4-dimethylphenyl)-1,5-dihydro-3-methyl-5-oxo-4H-pyrazol-4-ylidene]hydrazino]-2′-hydroxy-[1,1′-biphenyl]-3-carboxylic acid] | no activation was observed | 
 |  |  |  |  |  |  |  |  |  |  |  |  |  |  |  | TPO: recombinant human thrombopoietin obtained from R&D Systems, Inc. | significant Akt activation | significant enhancement of activation of Akt
